Data from patent US6365634B1, “Naturally occurring compounds and their derivatives as cyclooxygenase 2 and/or 5-lipoxygenase inhibitors” (C-P Technology Limited Partnership, priority 1997, dated 2002).

Columns and labels:
human keratinocytes = assay: Microscopic examination of treated keratinocyte cultures; format: cell-based
human recombinant COX II = molecular target: T1, human recombinant COX II (Homo sapiens, UniProt P35354); assay: COX II biochemical assay (3H-arachidonic acid conversion, TLC quantitation)
T1 construct: purchased Oxford Chemical
T1 sequence (P35354 18-604): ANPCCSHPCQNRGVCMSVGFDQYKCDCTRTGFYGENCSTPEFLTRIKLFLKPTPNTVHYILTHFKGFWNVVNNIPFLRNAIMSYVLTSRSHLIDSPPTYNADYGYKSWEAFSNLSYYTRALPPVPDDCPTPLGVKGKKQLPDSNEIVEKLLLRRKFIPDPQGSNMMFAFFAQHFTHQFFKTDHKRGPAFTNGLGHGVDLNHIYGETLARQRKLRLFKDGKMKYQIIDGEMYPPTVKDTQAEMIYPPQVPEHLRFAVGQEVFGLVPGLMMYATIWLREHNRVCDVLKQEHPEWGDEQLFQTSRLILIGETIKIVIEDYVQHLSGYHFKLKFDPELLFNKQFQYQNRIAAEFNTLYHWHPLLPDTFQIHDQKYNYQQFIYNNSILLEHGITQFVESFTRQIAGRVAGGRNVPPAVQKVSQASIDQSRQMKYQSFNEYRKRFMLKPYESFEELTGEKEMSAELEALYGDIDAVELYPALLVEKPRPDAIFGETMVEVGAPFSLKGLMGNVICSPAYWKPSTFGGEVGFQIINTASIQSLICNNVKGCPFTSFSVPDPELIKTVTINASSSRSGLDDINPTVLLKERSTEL
Method: Two units of recombinant COX II enzyme (corresponding to 0.8 ug total protein) was added followed by 5 uL aliquots of the peat bog extracts yielding a final concentration of the peat extracts of 25 ug/ml. All samples were run in duplicate. […] Reactions were initiated by the addition of ^3H-arachidonic acid (DuPont-NEN) at a final concentration of 50 uM. The reactions were maintained for 5 minutes at 37° C. and stopped by the addition of ice-cold methanol/acetic acid (10:1 v/v).
The assessment of cyclooxygenase activity (both COX I and II) in the presence and absence of the peat bog extracts was based on the quantitation of tlhe radiolabeled arachidonic acid metabolites prostaglandin A2 (PGA2), PGE2, and PGF2-alpha. To do this, a 50 uL sample of each reaction solution was separated via TLC on LK6DF silica plates co-spotted with arachidonic acid, PGA2, and PGF2-alpha and developed in hexane/isopropyl alcohol/ acetic acid (85:15:1 v/v). The bands were visualized by UV-vis or I2 staining and scraped into scintillation vials for quantitation. […] The total enzyme activity (At), the corrected enzyme activity in the presence of an inhibitor (Ai), and % inhibition were calculated by the following equations:
3) Percent Inhibition=100 (1−Ai/ At)

[1] = tested on: human keratinocyte PGE2 production; assay: Cell-based COX II assay: PGE2 production by cultured human foreskin keratinocytes (enzyme immunoassay); details: 5, 1.0, 0.2 and 0.04 uM, 24 hours, high calcium medium
Method: The ability of dehydroabietic acid methyl ester to inhibit the enzymatic activities of COX II and 5-LO was tested using primary cultures of human foreskin keratinocytes. Briefly, human keratinocytes were plated in 48-well plates (Nunc) at an initial density of 2.5×10^4 cells per well. The cultures were maintained in medium 154XP (Cascade Biologics) to which human keratinocyte growth supplement (Cascade Biologics) was added. Cultures were plated initially in medium 154XP containing 0.07 mM CaCl2. Upon reaching […] confluency, the media was exchanged with high calcium medium 154XP containing 1.2 mM CaCl2. Previous studies have shown that an increase in extracellular Ca^2+concentration induces the differentiation of cultured keratinocytes with a concomitant increase in the expression of COX II protein and COX II mRNA with no apparent effect on COX I expression (Leong, J., Hughes-Fulford, M., Rakhlin, A., Maclouf, J., and Goldyne, M., (1996), Exp. Cell Res., V224, p79). Twenty-four hours after switching to the high calcium media, duplicate wells were treated with dehydroabietic acid methyl ester serially diluted in ethanol to produce final concentrations of 5, 1.0, 0.2, and 0.04 uM. Companion cultures were treated with an identical dilution series of the Merck COX II-specific inhibitor DFU. Twenty-four hours later, samples were removed from each treated well (as well as vehicle-treated control wells) and the amount of PGE2 (a product of the COX II pathway) was quantified using a PGE2-specific enzyme immunoassay (Cayman Chemical). ), As was done with the previously described biochemical assays (COX I, COX II, 5-LO, and 15-LO), the percent inhibition was calculated based on a comparison between vehicle treated control cultures and cultures treated with dehydroabietic acid methyl ester or DFU (see Fractionation and Bioassay Analysis of Fractions Derived from Extract-8 above).
The ability of 4-cumylphenol to inhibit the enzymatic activity of COX II was tested using primary cultures of human foreskin keratinocytes. These cell studies were performed in an identical manner to the studies described in Example 6. […] Twenty-four hours later, samples were removed from each treated well (as well as vehicle-treated control wells) and the amount of PGE2 (a product of the COX II pathway) was quantified using a PGE2-specific enzyme immunoassay (Cayman Chemical). ), as was done with the previously described COX I, COX II, and 15-LO biochemical assays (see Example 2B). The percent inhibition was calculated based on a comparison between vehicle treated control cultures and cultures treated with 4-cumylphenol or DFU. […]
To evaluate the biological activities of 3-methoxy aniline, sufficient quantities of the compound were synthesized as detailed in Example 1C (above). […]

SMILES	toxicity when treated cultures were examined microscopically (human keratinocytes)	inhibited COX II preferentially over COX I by (human recombinant COX II; 250 uM, difference of percent inhibition COX II versus COX I)	Percent Inhibition of COX II (human recombinant COX II; final concentration of 250 uM)	inhibition of PGE2 production by cultured human keratinocytes [1]	Percent Inhibition of COX II (human recombinant COX II; pure 4-cumylphenol, assay as Example 2B, concentration not given)
COC(=O)[C@]1(C)CCC[C@]2(C)c3ccc(C(C)C)cc3CC[C@@H]12 [Dehydroabietic acid methyl ester, dehydroabietic acid methyl ester]	lack of toxicity	over 30%	31.5%	inhibited the production of PGE2	
CC(C)(c1ccccc1)c1ccc(O)cc1 [4-Cumylphenol, 4-cumylphenol]	lack of toxicity			inhibited the production of PGE2	22.4%
